Test results taken from patent publication US5726184A, “Tetralin compounds with improved MDR activity” (Vertex Pharmaceuticals Incorporated, priority 1995, dated 1998).
Like-named read-outs stand apart in the source and are kept apart here.

Columns and labels:
HL60/ADR cells = assay: Reversal of MRP-mediated MDR in HL60/ADR cells (doxorubicin with or without MDR inhibitor); type: cell-based; conditions: for Fold reversal (IC50 doxorubicin alone / IC50 doxorubicin + MDR inhibitor): HL60/ADR
Procedure: We plated HL60/ADR cells in 96 well microtiter plates (4×10^4 cells/well). The cells were then exposed to various concentrations of doxorubicin (50 nM to 10 μM) in the presence or absence of various compounds of this invention at various concentrations (0.5-10 μM). After culturing the cells for 3 days, their viability was quantitated using the XTT dye method to assess mitochondrial function. […] IC50 values are expressed in nM. In all assays the intrinsic antiproliferative or cytotoxicity activity of the MDR inhibitors was also determined for HL60/ADR cells.

L1210vDOX = assay: Reversal of MDR in L1210vDOX (MDR sensitization assay, doxorubicin with or without MDR inhibitor); type: cell-based, mouse; conditions: for IC50: 3 days
[1] = IC50 of doxorubicin in presence of 0.5 μM Cpd, read-out: IC50 DOX + 0.5 μM Cpd
[2] = IC50 of doxorubicin in presence of 1.0 μM Cpd, read-out: IC50 DOX + 1.0 μM Cpd
[3] = IC50 of doxorubicin in presence of 2.5 μM Cpd, read-out: IC50 DOX + 2.5 μM Cpd

Compound	IC50 (HL60/ADR cells; Homo sapiens, 72 h, doxorubicin alone, control of the compound of the line, HL60/ADR cells, 3 days, read-out: IC50 DOX Alone) [µM]	MDR ratio (IC50 Dox / IC50 Dox+Inhibitor) (L1210vDOX; MDR ratio at 0.5 μM Cpd)	MDR ratio (IC50 Dox / IC50 Dox+Inhibitor) (L1210vDOX; MDR ratio at 1.0 μM Cpd)	MDR ratio (IC50 Dox / IC50 Dox+Inhibitor) (L1210vDOX; MDR ratio at 2.5 μM Cpd)	IC50 (L1210vDOX; [1]) [µM]	IC50 (L1210vDOX; [2]) [µM]	IC50 (L1210vDOX; [3]) [µM]	Fold reversal (IC50 doxorubicin alone / IC50 doxorubicin + MDR inhibitor) (HL60/ADR cells; ratio at 0.5 μM Cpd)	Fold reversal (IC50 doxorubicin alone / IC50 doxorubicin + MDR inhibitor) (HL60/ADR cells; ratio at 1.0 μM Cpd)	Fold reversal (IC50 doxorubicin alone / IC50 doxorubicin + MDR inhibitor) (HL60/ADR cells; ratio at 2.5 μM Cpd)
COc1cccc2c1C(=O)c1c(O)c3c(c(O)c1C2=O)C[C@@](O)(C(=O)CO)C[C@@H]3O[C@H]1C[C@H](N)[C@H](O)[C@H](C)O1 [DOX, doxorubicin, reference compound]	3.5									
COc1cc(C(=O)C(=O)N(C)[C@@H](Cc2ccccc2)C(=O)O[C@@H]2CCCc3ccc(OCc4ccncc4)cc32)cc(OC)c1OC [Compound 20, 3-Benzyl-2(S)-(methyl-(2-oxo-2-(3,4,5-trimethoxyphenyl)-acetyl)amino) propanoic acid ((7-pyridin-4-ylmethoxy)-1,2,3,4-tetrahydronaphthalen-1(R)-yl) ester]		3.0	7.0	10.5						
COc1cc(C(=O)C(=O)N2CCCC[C@H]2C(=O)OC2CCCc3c(OCc4ccncc4)cccc32)cc(OC)c1OC (stereo partly drawn) [Compound 9, 1-(2-Oxo-2-(3,4,5-trimethoxyphenyl)-acetyl)-piperidine-2(S)-carboxylic acid 2-((5-pyridin-4-ylmethoxy)-1,2,3,4-tetrahydronaphthalen-1-yl) ester]		6.4	13.7	22.8	0.75	0.35	0.175			
COc1cc(C(=O)C(=O)N2CCCC[C@H]2C(=O)O[C@H]2CCCc3ccc(OCc4ccncc4)cc32)cc(OC)c1OC [Compound 6, 1-(2-Oxo-2-(3,4,5-trimethoxyphenyl)-acetyl)-piperidine-2(S)-carboxylic acid 2-((7-pyridin-4-ylmethoxy)-1,2,3,4-tetrahydronaphthalen-1(S)-yl) ester]		4.8	6.3	9.5				8.8	6.4	39
COc1cc(C(=O)C(=O)N2Cc3ccccc3C[C@H]2C(=O)O[C@@H]2CCCc3ccc(OCc4ccncc4)cc32)cc(OC)c1OC [Compound 17, 2-(2-Oxo-2-(3,4,5-trimethoxyphenyl)-acetyl)-1,2,3,4-tetrahydroisoquinoline-3(S)-carboxylic acid 2-((7-pyridin-4-ylmethoxy)-1,2,3,4-tetrahydronaphthalen-1(R)-yl) ester]		5.6	8.7	11.1				2.3	11.7	11.7
COc1cc(C(=O)C(=O)N2CCCC[C@H]2C(=O)N[C@H]2CCCc3ccc(OCc4ccncc4)cc32)cc(OC)c1OC [Compound 11B, 1-(2-Oxo-2-(3,4,5-trimethoxyphenyl)-acetyl)-piperidine-2(S)-carboxylic acid 2-((7-pyridin-4-ylmethoxy)-1,2,3,4-tetrahydronaphthalen-1(S)-yl) amide]		1.8	2.2	10.0	0.4	0.325	0.07			
COc1cc(C(=O)C(=O)N2CCCC[C@H]2C(=O)O[C@@H]2CCCc3ccc(OCc4ccncc4)cc32)cc(OC)c1OC [Compound 7, 1-(2 -Oxo-2(3,4,5-trimethoxyphenyl)-acetyl)-piperidine-2(S)-carboxylic acid 2-((7-pyridin-4-ylmethoxy)-1,2,3,4-tetrahydronaphthalen-1(R)-yl) ester]		23.1	4.8	9.5						
COc1cc(C(=O)C(=O)N2CCCC[C@H]2C(=O)N[C@@H]2CCCc3ccc(OCc4ccncc4)cc32)cc(OC)c1OC [Compound 11A, 1-(2-Oxo-2-(3,4,5-trimethoxyphenyl)-acetyl)-piperidine-2(S)-carboxylic acid 2-((7-pyridin-4-ylmethoxy)-1,2,3,4-tetrahydronaphthalen-1(R)-yl) amide]		1.1	2.0	4.0	0.65	0.35	0.175			
CCCOc1cc2c(c(OCCC)c1C)CC[C@@H](Cc1cccnc1)[C@@H]2OC(=O)[C@@H]1CCCCN1C(=O)C(=O)c1cc(OC)c(OC)c(OC)c1 (single isomer, unassigned) [Compound 30B]		1.4	2.0	> 7.0						
COc1cc(C(=O)C(=O)N2CCCC[C@H]2C(=O)N(Cc2ccccc2)C2CCCc3ccc(OCc4ccncc4)cc32)cc(OC)c1OC (single isomer, unassigned) [Compound 16]		2.2	7.1	> 8.5				2.3	39	> 60
CCCOc1cc2c(c(OCCC)c1C)CC[C@@H](Cc1cccnc1)[C@H]2OC(=O)[C@@H]1CCCCN1C(=O)C(=O)c1cc(OC)c(OC)c(OC)c1 (single isomer, unassigned) [Compound 29B]		1.8	3.7	> 7.0						
COc1cc(C(=O)C(=O)N2Cc3ccccc3C[C@H]2C(=O)O[C@H]2CCCc3ccc(OCc4ccncc4)cc32)cc(OC)c1OC [Compound 18, 2-(2-Oxo-2-(3,4,5-trimethoxyphenyl)-acetyl)-1,2,3,4-tetrahydroisoquinoline-3(S)-carboxylic acid 2-((7-pyridin-4-ylmethoxy)-1,2,3,4-tetrahydronaphthalen-1(S)-yl) ester]		3.3	6.7	10.0						
CCCOc1cc2c(c(OCCC)c1C)CC[C@H](Cc1cccnc1)[C@H]2OC(=O)[C@@H]1CCCCN1C(=O)C(=O)c1cc(OC)c(OC)c(OC)c1 (single isomer, unassigned) [Compound 30A]		1.4	2.3	> 7.0						
COc1cc(C(=O)C(=O)N2CCCC[C@H]2C(=O)N(Cc2ccccc2)C2CCCc3ccc(OCc4ccncc4)cc32)cc(OC)c1OC (single isomer, unassigned) [Compound 15]		6.1	> 8.5	> 8.5						
COc1cc(C(=O)C(=O)N(C)[C@@H](Cc2ccccc2)C(=O)O[C@H]2CCCc3ccc(OCc4ccncc4)cc32)cc(OC)c1OC [Compound 21]		5.4	6.8	8.7				3.5	3.2	23
CCCOc1cc2c(c(OCCC)c1C)CC[C@H](Cc1cccnc1)[C@@H]2OC(=O)[C@@H]1CCCCN1C(=O)C(=O)c1cc(OC)c(OC)c(OC)c1 [Compound 29A]		1.4	1.8	> 7.0	0.25	0.19	< 0.05			
COc1cc(C(=O)C(=O)N[C@@H](Cc2ccccc2)C(=O)O[C@@H]2CCCc3ccc(OCc4ccncc4)cc32)cc(OC)c1OC [Compound 19, 3-Benzyl-2(S)-((2-oxo-2-(3,4,5-trimethoxyphenyl-)acetyl)amino) propanoic acid ((7-pyridin-4-ylmethoxy)-1,2,3,4-tetrahydronaphthalen-1(R)-yl) ester]		1.6	2.4	6.3						
